The values that follow come from PubChem BioAssay AID1963858 (Molecular Pharmacology Branch, DTP, NCI, 2024).

The subject of the assay is HOP-62 multicell spheroids with HUVEC/MSC, viability. Nature of the assay: Anticancer human tumor HOP-62 cell line growth inhibition [KRAS2].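 For all read-outs here: viability read after a week of compound exposure.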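 For viability, T/C: 100% = DMSO vehicle-treated spheroids.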 Particulars: for viability, T/C: stronger effect = lower value. From the text: Multicellular complex tumor spheroid response to RAS pathway inhibitors in combination with a targeted agents in patient-derived cell lines with oncogenic KRAS variants from multiple cancer types
A high-throughput screen of multi-cell type tumor spheroids was designed to identify active combinations of targeted small molecules and KRAS pathway inhibitors. Complex spheroids include a stromal component modeled by human endothelial cells (HUVEC) and fibroblasts modeled by human mesenchymal stem cells (MSCs). The concentration ranges selected for each drug and investigational agent were based upon clinically achievable concentrations if the clinical Cmax of the agent was known.
Compounds. The drugs and investigational agents: BI-3406 (NSC825286), BAY-293 (NSC824723), batoprotafib (TNO155; NSC825523), sotorasib (AMG 510; NSC818433), MRTX1257 (NSC819558), elimusertib (BAY 1895344; NSC800525), molibresib (GSK525762; NSC774829), temuterkib (LY3214996; NSC803410), venetoclax (NSC766270), alisertib (NSC759677), olaparib (NSC753686), talazoparib (NSC767125), erdafitinib (NSC781556), ipatasertib (NSC767898), cabozantinib (NSC761068), nintedanib (NSC756659), abemaciclib (NSC768073), docetaxel (NSC628503), trametinib (NSC758246), and sapanisertib (NSC764658) were obtained from the National Cancer Institute (NCI) Developmental Therapeutics Program Chemical Repository. The FDA-approved anticancer drug set is available from the Developmental Therapeutics Program. […] The stock solutions were prepared in dimethyl sulfoxide (DMSO, Sigma-Aldrich, St. Louis, MO, cat. D2650) at 800-fold the tested concentration and stored at -70 degrees C prior to their use. All drugs and investigational agents were tested over a range starting from a high concentration at or near the clinical Cmax and decreasing in half-log increments. If the clinical Cmax for an agent had not been determined, the highest concentration tested was 10 microM.
Cell Culture. All cells were maintained in an incubator at 37 degrees C and 5% CO2 with 95% humidity. The PDC lines were cultured according to standard operating procedures established by the NCI PDMR (https://pdmr.cancer.gov/sops/default.htm). Briefly, all PDCs were thawed and cultured in Matrigel-coated flasks prepared with a working solution of 1X Ham's F-12 nutrient mix, without supplementation (Invitrogen, Waltham, MA, cat. 11765054), 100 U/mL penicillin-streptomycin (Invitrogen, cat. 15140122), and 2.5% Matrigel (Corning Inc., Corning, NY, cat. 354248) for the first three passages. All PDCs were cultured in complete DMEM/F-12 media containing advanced DMEM/F-12 (Invitrogen, cat. 12634028), 4.9% defined fetal bovine serum, heat inactivated (HyClone Laboratories Inc., Logan, UT, cat. SH30070.03HI), 389 ng/mL hydrocortisone (Sigma-Aldrich, cat. H4001), 9.7 ng/mL human EGF recombinant protein (Invitrogen, cat. PHG0313), 23.4 microg/mL adenine (Sigma-Aldrich, cat. A2786), 97.3 U/mL penicillin-streptomycin (Invitrogen, cat. 15140122), 1.9 mM L-glutamine (Invitrogen, cat. 25030081), and 9.7 microM Y-27632 dihydrochloride (Tocris Bioscience, Bristol, United Kingdom, cat. 1254). The PDCs were cultured in complete DMEM/F12 media without 9.7 microM Y-27632 dihydrochloride for at least two passages prior to the screen. The established cell line HOP-62 was cultured in RPMI 1640 medium, HEPES (Invitrogen, cat. 22400105) with 10% defined fetal bovine serum (HyClone Laboratories Inc., cat. SH30070.03) and 2 mM L-glutamine (Invitrogen, cat. 25030081). The pooled donor HUVEC were cultured in endothelial cell growth medium 2 (PromoCell, Heidelberg, Germany, cat. C-22011) and the hMSC were cultured in mesenchymal stem cell growth medium 2 (PromoCell, cat. C-28009). For all experiments, HUVEC and hMSC were used at passages </=5, while the malignant cell lines were used at passages </=15. […]

SMILES strings stand for the structures. Where “and” joins values, the source holds several entries; their conditions need not be identical. Identical values can stand only once.

On to `CC(=O)Nc1cccc(-n2c(=O)n(C3CC3)c(=O)c3c(Nc4ccc(I)cc4F)n(C)c(=O)c(C)c32)c1`, for which the viability, T/C was 107% [middle of 5 runs] (compound 0.0001 µM); 107% [middle of 5 runs] (compound 0.000316 µM); 87.9% [middle of 5 runs] (compound 0.001 µM); 61.7% [middle of 5 runs] (compound 0.00316 µM); 31% [middle of 5 runs] (compound 0.01 µM); 31.2% [middle of 5 runs] (compound 0.0316 µM). Besides, the IC50 (curve of compound) was 4.9 nM [middle of 5 runs].

Consider `CC(=O)OC12COC1CC(O)C1(C)C(=O)C(O)C3=C(C)C(OC(=O)C(O)C(NC(=O)OC(C)(C)C)c4ccccc4)CC(O)(C(OC(=O)c4ccccc4)C21)C3(C)C` (stereo not drawn), for which the viability, T/C runs as follows: (compound 0.01 µM) 41% [middle of 5 runs]; (compound 0.0316 µM) 36.9% [middle of 5 runs]; (compound 0.1 µM) 36.1% [middle of 5 runs]; (compound 0.316 µM) 39.6% [middle of 5 runs]; (compound 1 µM) 42% [middle of 5 runs]; (compound 3.16 µM) 42.9% [middle of 5 runs]. Besides, the IC50 (curve of compound) is < 0.01 µM.

For the compound `CC(C)NCC(C(=O)N1CCN(c2ncnc3c2C(C)CC3O)CC1)c1ccc(Cl)cc1` (stereo not drawn), the viability, T/C is, setting by setting: (compound 0.0316 µM) 101% [middle of 5 runs]; (compound 0.1 µM) 104% [middle of 5 runs]; (compound 0.316 µM) 80.4% [middle of 5 runs]; (compound 1 µM) 62.8% [middle of 5 runs]; (compound 3.16 µM) 27.9% [middle of 5 runs]; (compound 10 µM) 13.2% [middle of 5 runs]. Also, the IC50 (curve of compound) is 1.49 µM [middle of 5 runs].

As to `CC(C)n1nc(-c2ccc3oc(N)nc3c2)c2c(N)ncnc21`, the viability, T/C (compound 0.000316 µM) is 93.7% [middle of 5 runs]; the viability, T/C (compound 0.001 µM) is 80.3% [middle of 5 runs]; the viability, T/C (compound 0.01 µM) is 44% [middle of 5 runs]; the viability, T/C (compound 0.0316 µM) is 25.6% [middle of 5 runs]; the viability, T/C (compound 0.1 µM) is 18.1% [middle of 5 runs].

As to `CC1(C)CCC(CN2CCN(c3ccc(C(=O)NS(=O)(=O)c4ccc(NCC5CCOCC5)c([N+](=O)[O-])c4)c(Oc4cnc5[nH]ccc5c4)c3)CC2)=C(c2ccc(Cl)cc2)C1`, the viability, T/C was 97.8% [middle of 5 runs] (compound 0.0316 µM); 98.4% [middle of 5 runs] (compound 0.1 µM); 93.6% [middle of 5 runs] (compound 0.316 µM); 89.2% [middle of 5 runs] (compound 1 µM); 73.1% [middle of 5 runs] (compound 3.16 µM); 26.2% [middle of 5 runs] (compound 10 µM). For the same compound, the IC50 (curve of compound) is 5.7 µM [middle of 5 runs].

As to `CC1COCCN1c1cc(-c2ccnn2C)c2ccnc(-c3ccn[nH]3)c2n1` (stereo not drawn), the viability, T/C runs as follows: (compound 0.316 µM) 16.9% [middle of 5 runs]; (compound 1 µM) 16.8% [middle of 5 runs]; (compound 3.16 µM) 17.2% [middle of 5 runs].

Regarding `CC1OCC2(CCN(c3cnc(Sc4ccnc(N)c4Cl)c(N)n3)CC2)C1N` (stereo not drawn), the viability, T/C was 103% (2×) and 77% (compound 0.0316 µM); 92.2% [middle of 19 runs] (compound 0.1 µM). In addition, the IC50 is 2.29 µM [middle of 6 runs] (compound alone, run of 07/12/2021); > 10 µM and 3.82 µM and 9.82 µM (curve of compound).

Regarding `CCN1CCN(Cc2ccc(Nc3ncc(F)c(-c4cc(F)c5nc(C)n(C(C)C)c5c4)n3)nc2)CC1`, the viability, T/C runs as follows: (compound 0.00316 µM) 102% [middle of 5 runs]; (compound 0.01 µM) 102% [middle of 5 runs]; (compound 0.0316 µM) 99.7% [middle of 5 runs]; (compound 0.1 µM) 98.1% [middle of 5 runs]; (compound 0.316 µM) 86.3% [middle of 5 runs]; (compound 1 µM) 68% [middle of 5 runs]. For the setting “curve of compound”, the IC50 was > 1 µM.

For the compound `CCNC(=O)CC1N=C(c2ccc(Cl)cc2)c2cc(OC)ccc2-n2c(C)nnc21` (stereo not drawn), the viability, T/C (compound 0.0316 µM) is 105% [middle of 5 runs]; the viability, T/C (compound 0.1 µM) was 90% [middle of 5 runs]; the viability, T/C (compound 0.316 µM) is 62.1% [middle of 5 runs]; the viability, T/C (compound 1 µM) is 48.2% [middle of 5 runs]; the viability, T/C (compound 3.16 µM) is 44.7% [middle of 5 runs]. Besides, the IC50 (curve of compound) is 880 nM [middle of 5 runs].

Regarding `CN(C)C/C=C/C(=O)Nc1cc2c(Nc3ccc(F)c(Cl)c3)ncnc2cc1O[C@H]1CCOC1`, the viability, T/C is, setting by setting: (compound 0.000316 µM) 105% and 110% and 102% (2×); (compound 0.001 µM) 114% (2×) and 107% and 102% (2×); (compound 0.00316 µM) 104% [middle of 5 runs]; (compound 0.01 µM) 104% [middle of 5 runs]; (compound 0.0316 µM) 105% [middle of 5 runs]; (compound 0.1 µM) 102% [middle of 5 runs]. Besides, the IC50 (curve of compound) was > 0.1 µM.

On to `CNCc1ccccc1-c1csc(C(C)Nc2nc(C)nc3cc(OC)c(OC)cc23)c1` (stereo not drawn), for which the viability, T/C by setting is: (compound 0.1 µM) 99.2% [middle of 17 runs]; (compound 10 µM) 0.22% [middle of 15 runs]. Also, the IC50 is 1.54 µM [middle of 5 runs] (compound alone, run of 07/19/2021) and 1.73 µM [middle of 6 runs] (compound alone, run of 07/26/2021).

Take `COC(=O)c1ccc2c(C(=Nc3ccc(N(C)C(=O)CN4CCN(C)CC4)cc3)c3ccccc3)c(O)[nH]c2c1`: the viability, T/C is, setting by setting: (compound 0.0316 µM) 89.8% [middle of 5 runs]; (compound 0.1 µM) 77.7% [middle of 5 runs]; (compound 0.316 µM) 65.8% [middle of 5 runs]; (compound 1 µM) 48.6% [middle of 5 runs]; (compound 3.16 µM) 40.7% [middle of 5 runs]; (compound 10 µM) 15.8% [middle of 5 runs]. The IC50 (curve of compound) was 1.09 µM [middle of 5 runs].

For the compound `COc1cc2nccc(Oc3ccc(NC(=O)C4(C(=O)Nc5ccc(F)cc5)CC4)cc3)c2cc1OC`, the viability, T/C by setting is: (compound 0.0316 µM) 96.9% [middle of 5 runs]; (compound 1 µM) 99.2% [middle of 5 runs]; (compound 3.16 µM) 78.9% [middle of 5 runs].

`Cn1nccc1Nc1nccc(-c2cc3c(s2)C(C)(C)N(CCN2CCOCC2)C3=O)n1`: the viability, T/C reads like this: (compound 0.0316 µM) 98.2% [middle of 5 runs]; (compound 0.1 µM) 103% [middle of 5 runs]; (compound 0.316 µM) 99.5% [middle of 5 runs]; (compound 1 µM) 62.4% [middle of 5 runs]; (compound 3.16 µM) 32.8% [middle of 5 runs]; (compound 10 µM) 30.4% [middle of 5 runs]. The IC50 (curve of compound) was 1.65 µM [middle of 5 runs].

`Cn1ncnc1[C@H]1c2n[nH]c(=O)c3cc(F)cc(c23)N[C@@H]1c1ccc(F)cc1`: the viability, T/C by setting is: (compound 0.000316 µM) 105% [middle of 5 runs]; (compound 0.001 µM) 102% (2×) and 95.9% and 103% (2×); (compound 0.00316 µM) 103% [middle of 5 runs]; (compound 0.01 µM) 99.4% [middle of 5 runs]; (compound 0.0316 µM) 98% [middle of 5 runs]; (compound 0.1 µM) 85.3% [middle of 5 runs]. The IC50 (curve of compound) is > 0.1 µM.

As for `O=C(c1cc(Cc2n[nH]c(=O)c3ccccc23)ccc1F)N1CCN(C(=O)C2CC2)CC1`, the viability, T/C is 105% [middle of 5 runs] (compound 0.0316 µM), 102% [middle of 5 runs] (compound 0.1 µM), 93.2% [middle of 5 runs] (compound 0.316 µM) and 50.4% [middle of 5 runs] (compound 10 µM). The IC50 (curve of compound) is 4.88 µM and > 10 µM and 4.58 µM.
